Test results published in ChEMBL document CHEMBL4000244, “Probing A-form DNA: A fluorescent aminosugar probe and dual recognition by anthraquinone-neomycin conjugates” (Bioorg Med Chem, 2017).

Tests used:
[1] = Binding affinity to 5'-CGGGCCCG-3' DNA hairpin assessed as change in fluorescence intensity at 1 uM after 45 mins by fluorescence quenching analysis relative to control
[2] = Binding affinity to 5'-GGGCGGGC-3' DNA hairpin assessed as change in fluorescence intensity at 1 uM after 45 mins by fluorescence quenching analysis relative to control
[3] = Binding affinity to 5'-CGGCCCCC-3' DNA hairpin assessed as change in fluorescence intensity at 1 uM after 45 mins by fluorescence quenching analysis relative to control
[4] = Binding affinity to 5'-CGCCCCGG-3' DNA hairpin assessed as change in fluorescence intensity at 1 uM after 45 mins by fluorescence quenching analysis relative to control
[5] = Binding affinity to 5'-CGGGGGCG-3' DNA hairpin assessed as change in fluorescence intensity at 1 uM after 45 mins by fluorescence quenching analysis relative to control
[6] = Binding affinity to 5'-GCCCCGCG-3' DNA hairpin assessed as change in fluorescence intensity at 1 uM after 45 mins by fluorescence quenching analysis relative to control
[7] = Binding affinity to 5'-GGCCGGCC-3' DNA hairpin assessed as change in fluorescence intensity at 1 uM after 45 mins by fluorescence quenching analysis relative to control
[8] = Binding affinity to 5'-GCCCCCCG-3' DNA hairpin assessed as change in fluorescence intensity at 1 uM after 45 mins by fluorescence quenching analysis relative to control
[9] = Binding affinity to 5'-CCGGCCGG-3' DNA hairpin assessed as change in fluorescence intensity at 1 uM after 45 mins by fluorescence quenching analysis relative to control
[10] = Binding affinity to 5'-CCGCGCGG-3' DNA hairpin assessed as change in fluorescence intensity at 1 uM after 45 mins by fluorescence quenching analysis relative to control
[11] = Binding affinity to 5'-GCCGGCCC-3' DNA hairpin assessed as change in fluorescence intensity at 1 uM after 45 mins by fluorescence quenching analysis relative to control
[12] = Binding affinity to 5'-CCCGGCCG-3' DNA hairpin assessed as change in fluorescence intensity at 1 uM after 45 mins by fluorescence quenching analysis relative to control
[13] = Binding affinity to 5'-GGCGGCGC-3' DNA hairpin assessed as change in fluorescence intensity at 1 uM after 45 mins by fluorescence quenching analysis relative to control
[14] = Binding affinity to 5'-GCGCCGCC-3' DNA hairpin assessed as change in fluorescence intensity at 1 uM after 45 mins by fluorescence quenching analysis relative to control
[15] = Binding affinity to 5'-CCGGCCCG-3' DNA hairpin assessed as change in fluorescence intensity at 1 uM after 45 mins by fluorescence quenching analysis relative to control
[16] = Binding affinity to 5'-GCGGCGGG-3' DNA hairpin assessed as change in fluorescence intensity at 1 uM after 45 mins by fluorescence quenching analysis relative to control
[17] = Binding affinity to 5'-CCGCGCCC-3' DNA hairpin assessed as change in fluorescence intensity at 1 uM after 45 mins by fluorescence quenching analysis relative to control
[18] = Binding affinity to 5'-CCGCCCGC-3' DNA hairpin assessed as change in fluorescence intensity at 1 uM after 45 mins by fluorescence quenching analysis relative to control
[19] = Binding affinity to 5'-GCCCCGGC-3' DNA hairpin assessed as change in fluorescence intensity at 1 uM after 45 mins by fluorescence quenching analysis relative to control
[20] = Binding affinity to 5'-GCCGGGCG-3' DNA hairpin assessed as change in fluorescence intensity at 1 uM after 45 mins by fluorescence quenching analysis relative to control
[21] = Binding affinity to 5'-CCCGGCGG-3' DNA hairpin assessed as change in fluorescence intensity at 1 uM after 45 mins by fluorescence quenching analysis relative to control
[22] = Binding affinity to 5'-CGCGCCCC-3' DNA hairpin assessed as change in fluorescence intensity at 1 uM after 45 mins by fluorescence quenching analysis relative to control
[23] = Binding affinity to 5'-GGCCCGGG-3' DNA hairpin assessed as change in fluorescence intensity at 1 uM after 45 mins by fluorescence quenching analysis relative to control
[24] = Binding affinity to 5'-GCGCCCCC-3' DNA hairpin assessed as change in fluorescence intensity at 1 uM after 45 mins by fluorescence quenching analysis relative to control
[25] = Binding affinity to 5'-CGCCGCGC-3' DNA hairpin assessed as change in fluorescence intensity at 1 uM after 45 mins by fluorescence quenching analysis relative to control
[26] = Binding affinity to 5'-GCGCGGCG-3' DNA hairpin assessed as change in fluorescence intensity at 1 uM after 45 mins by fluorescence quenching analysis relative to control
[27] = Binding affinity to 5'-CCCGCGCG-3' DNA hairpin assessed as change in fluorescence intensity at 1 uM after 45 mins by fluorescence quenching analysis relative to control
[28] = Binding affinity to 5'-CGCGCCCG-3' DNA hairpin assessed as change in fluorescence intensity at 1 uM after 45 mins by fluorescence quenching analysis relative to control
[29] = Binding affinity to 5'-CCCCGCCC-3' DNA hairpin assessed as change in fluorescence intensity at 1 uM after 45 mins by fluorescence quenching analysis relative to control
[30] = Binding affinity to 5'-CCGCGGGC-3' DNA hairpin assessed as change in fluorescence intensity at 1 uM after 45 mins by fluorescence quenching analysis relative to control
[31] = Binding affinity to 5'-CGCGGGGG-3' DNA hairpin assessed as change in fluorescence intensity at 1 uM after 45 mins by fluorescence quenching analysis relative to control
[32] = Binding affinity to 5'-CCCGCGCC-3' DNA hairpin assessed as change in fluorescence intensity at 1 uM after 45 mins by fluorescence quenching analysis relative to control
[33] = Binding affinity to 5'-CCGGCGGC-3' DNA hairpin assessed as change in fluorescence intensity at 1 uM after 45 mins by fluorescence quenching analysis relative to control
[34] = Binding affinity to 5'-GGGGCGGG-3' DNA hairpin assessed as change in fluorescence intensity at 1 uM after 45 mins by fluorescence quenching analysis relative to control
[35] = Binding affinity to 5'-GGCGCCCC-3' DNA hairpin assessed as change in fluorescence intensity at 1 uM after 45 mins by fluorescence quenching analysis relative to control
[36] = Binding affinity to 5'-GCGGGGGC-3' DNA hairpin assessed as change in fluorescence intensity at 1 uM after 45 mins by fluorescence quenching analysis relative to control

Question: Which Activity [1] does the source give for `NCC1O[C@H](O[C@H]2[C@@H](O)[C@H](O[C@@H]3[C@@H](O)[C@H](N)C[C@H](N)[C@H]3O[C@H]3O[C@H](CN)[C@@H](O)[C@H](O)[C@H]3N)O[C@@H]2CSCCNC(=O)CCSCC(=O)Nc2ccc(-c3c4ccc(=O)cc-4oc4cc(O)ccc34)c(C(=O)O)c2)[C@H](N)[C@@H](O)[C@@H]1O` (stereo partly specified) here?
Answer: 41.3%

Question: And the Activity [2]?
Answer: 44.1%

Question: What about the Activity [3] of the same compound?
Answer: 29.6%

Question: And the Activity [4]?
Answer: 41.9%

Question: And the Activity [5]?
Answer: 41.1%

Question: What about the Activity [6] of the same compound?
Answer: 36.7%

Question: And the Activity [7]?
Answer: 45%

Question: And the Activity [8]?
Answer: 19.8%

Question: And the Activity [9]?
Answer: 49.1%

Question: And the Activity [10]?
Answer: 47.2%

Question: What about the Activity [11] of the same compound?
Answer: 37.6%

Question: And the Activity [12]?
Answer: 44.5%

Question: And the Activity [13]?
Answer: 50.6%

Question: What about the Activity [14] of the same compound?
Answer: 50.4%

Question: And the Activity [15]?
Answer: 48%

Question: What about the Activity [16] of the same compound?
Answer: 43.5%

Question: What about the Activity [17] of the same compound?
Answer: 52.4%

Question: What about the Activity [18] of the same compound?
Answer: 48.7%

Question: What about the Activity [19] of the same compound?
Answer: 28.6%

Question: And the Activity [20]?
Answer: 49.7%

Question: And the Activity [21]?
Answer: 39.8%

Question: And the Activity [22]?
Answer: 36.3%

Question: What about the Activity [23] of the same compound?
Answer: 26.7%

Question: And the Activity [24]?
Answer: 45.7%

Question: And the Activity [25]?
Answer: 46.6%

Question: And the Activity [26]?
Answer: 49.1%

Question: What about the Activity [27] of the same compound?
Answer: 51.8%

Question: And the Activity [28]?
Answer: 48.8%

Question: And the Activity [29]?
Answer: 45.7%

Question: And the Activity [30]?
Answer: 45.7%

Question: And the Activity [31]?
Answer: 40.6%

Question: And the Activity [32]?
Answer: 63.4%

Question: What about the Activity [33] of the same compound?
Answer: 47.4%

Question: What about the Activity [34] of the same compound?
Answer: 43.6%

Question: And the Activity [35]?
Answer: 37.8%

Question: What about the Activity [36] of the same compound?
Answer: 36.9%
